Drawing on US20170129903A1, “COMPOUNDS COMPRISING 1,1a,2,5a-TETRAHYDROSPIRO[INDOLE-3,2a-PYRROLE]-2,5a-DIONE SYSTEM AS INHIBITORS P53-MDM2 PROTEIN-PROTEIN INTERACTION” (ADAMED SP. Z O.O., priority 2014, published 2017), this text covers Ki and IC50 for eleven compounds.

The structures appear in SMILES notation.

For assay [1], the target named is T1, p53-Mdm2 interaction (N-terminal domain of Mdm2 protein, amino acids 1-111) (Homo sapiens, UniProt Q00987).
T1 construct: N-terminal domain of Mdm2 protein (amino acids 1-111)
T1 sequence (Q00987 1-111): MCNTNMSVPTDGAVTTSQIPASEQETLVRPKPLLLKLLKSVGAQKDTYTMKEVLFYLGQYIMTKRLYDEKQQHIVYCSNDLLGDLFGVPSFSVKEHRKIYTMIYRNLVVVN
The assay can be described thus: Fluorescence polarization (FP) binding assay of p53-Mdm2 interaction. As to conditions: FP assay, 130 nM Mdm2, FAM-labelled p53 peptide; Ki transformed from IC50 using Kenakin equation. On the procedure: The inhibition of p53-Mdm2 interaction was measured using a fluorescence polarization (FP) binding assay. FP measures the rotational movement of molecules in a homogenous suspension. For this assay, N-terminal domain of Mdm2 protein (amino acids 1-111) is combined with a fluorescein-labelled (FAM) peptide derived from p53 trans-activation domain. Upon excitation of the fluorescent ligand with linearly polarized light, […]. If the peptide is bound by Mdm2, rotation will slow down and the perpendicular component will decrease. Disruption of the formation of the peptide-Mdm2 complex due to an inhibitor molecule binding to the p53 binding site of Mdm2 results in faster rotation of the peptide.
Fluorescence polarization experiments were read on Tecan Infinite M1000 reader with the 470 nm excitation and 520 nm emission filters for fluorescein. The fluorescence polarization was measured in black 96-well plates (Corning, CLS3991) in room temperature. Purity of Mdm2 was controlled at >95%. Reaction buffer was optimized by adding 5 mM DTT and 0.1% zwitterionic detergent CHAPS to reduce effect of nonspecific interactions.
The test was performed by combining successive dilution of compounds diluted in dimethyl sulfoxide (DMSO, 5% final concentration) with 130 nM Mdm2 in reaction buffer (PBS, 0.1% CHAPS, 5 mM DTT (dithiothreitol)). After 15 minutes of incubation in room temperature […] FAM-labelled peptide was added. Final reading was performed after 90 minutes of incubation. Dose-dependent binding curves and IC50 values were calculated using GraphPad Prism5 and next transformed to Ki values using Kenakin equation.
For orientation: Polarisation of emitted light reports the rotation of a fluorescent probe.

Assay [2] relates to SJSA-1 osteosarcoma cell line. Kind of assay: MTT cell viability assay. The conditions noted are these: Homo sapiens, SJSA-1, 72 h, 72 h incubation, average of 2-5 experiments. The class given is cell-based. As for the experimental part: The effect of the invented p53-Mdm2 inhibitors on cell viability has been assessed using MTT assay. It is a colorimetric assay that measures conversion of tetrazolium ring of the soluble yellow dye (MTT) into insoluble purple formazan. This process is catalysed solely in mitochondrial dehydrogenases of living cells.
Cells were seeded on 96-well plates and then treated with successive dilutions of tested compounds. After 72 h incubation, MTT was added to the final concentration 0.5 mg/ml. The cells were further incubated for the next 4 h. Then the solution was drained and the remaining formazan crystals were dissolved in 100 μl DMSO. […] All the MTT experiments were independently repeated 2-5 times. Dose-dependent binding curves and IC50 values were calculated using GraphPad Prism 5.
On the technique in general: Tetrazolium dyes change colour on reduction, which living cells bring about.

On to `O=C1C(O)=C(c2ccccc2)C2(C(=O)Nc3cc(Cl)ccc32)N1c1cc(Cl)ccc1F` (centres unmarked) [Compound 45, 6-chloro-1′-(5-chloro-2-fluorophenyl)-4′-hydroxy-3′-phenyl-1,1′,2,5′-tetrahydrospiro[indole-3,2′-pyrrole]-2,5′-dione], for which, in assay [1], the Ki worked out at 36 nM. The compound also showed an IC50 in assay [2] of 29.9 µM.
As to `CC(C)c1[nH]nc2c1C1(C(=O)Nc3cc(Cl)ccc31)N(c1cc(Cl)ccc1O)C2=O` (centres unmarked) [Compound 24, 6-chloro-5′-(5-chloro-2-hydroxyphenyl)-3′-(propan-2-yl)-1,2,5′,6′-tetrahydro-2′H-spiro[indole-3,4′-pyrrolo[3,4-c]pyrazole]-2,6′-dione], the affinity in assay [1], expressed as Ki, was 54 nM. In addition, the half-maximal inhibitory concentration (IC50) in assay [2] stood at 33.5 µM.
The like results for `COc1ccc(-n2nc3c(c2C(C)C)C2(C(=O)Nc4cc(Cl)ccc42)N(c2cc(Cl)ccc2C)C3=O)c(OC)n1` (centres unmarked) [Compound 114, 6-chloro-5′-(5-chloro-2-methylphenyl)-2′-(2,6-dimethoxypyridin-3-yl)-3′-(propan-2-yl)-1,2,5′,6′-tetrahydro-2′H-spiro[indole-3,4′-pyrrolo[3,4-c]pyrazole]-2,6′-dione] were, in that order, 3.3 nM and 0.29 µM.
`CCC(C)SC1=C(O)C(=O)N(c2cccc(Cl)c2)C12C(=O)Nc1cc(Cl)ccc12` (centres unmarked) [Compound 57, 3′-(butan-2-ylsulfanyl)-6-chloro-1′-(3-chlorophenyl)-4′-hydroxy-1,1′,2,5′-tetrahydrospiro[indole-3,2′-pyrrole]-2,5′-dione] came in with an inhibition constant (Ki) in assay [1] of 79 nM.
Still for that read-out and setting: under `COc1ccc(Cl)cc1N1C(=O)C(O)=C(C(=O)C2(C)CC2)C12C(=O)Nc1cc(Cl)ccc12` (centres unmarked) [Compound 7, 6-chloro-1′-(5-chloro-2-methoxyphenyl)-4′-hydroxy-3′-(1-methylcyclopropane-carbonyl)-1,1′,2,5′-tetrahydrospiro[indole-3,2′-pyrrole]-2,5′-dione] stands 700 nM.
With `COc1ccc(C(=O)O)cc1-n1nc2c(c1C(C)C)C1(C(=O)Nc3cc(Cl)ccc31)N(c1cc(Cl)ccc1O)C2=O` (centres unmarked) [Compound 76, 3-[6-chloro-5′-(5-chloro-2-hydroxy-phenyl)-2,6′-dioxo-3′-(propan-2-yl)-1,2,5′,6′-tetrahydro-2′H-spiro[indole-3,4′-pyrrolo[3,4-c]pyrazole]-2′-yl]-4-methoxybenzoic acid], the affinity in assay [1] corresponds to a Ki of 3.6 nM.
Still for that read-out and setting: under `O=C1C(O)=C(c2ccccc2)C2(C(=O)Nc3ccc(Cl)cc32)N1c1cccc(Cl)c1` (centres unmarked) [Compound 38, 5-chloro-1′-(3-chlorophenyl)-4′-hydroxy-3′-phenyl-1,1′,2,5′-tetrahydrospiro[indole-3,2′-pyrrole]-2,5′-dione] stands 550 nM; under `COc1ccccc1-n1cc2c(c1C(C)C)C1(C(=O)Nc3cc(Cl)ccc31)N(c1cc(Cl)ccc1N)C2=O` (centres unmarked) [Compound 91, 2′-(2-amino-5-chlorophenyl)-6-chloro-5′-(2-methoxyphenyl)-6′-(propan-2-yl)-1,2,3′,5′-tetrahydro-2′H-spiro[indole-3,1′-pyrrolo[3,4-c]pyrrole]-2,3′-dione], 4.5 nM; under `O=C(C1=C(O)C(=O)N(c2cccc(Cl)c2)C12C(=O)Nc1cc(Cl)ccc12)c1ccccc1` (centres unmarked) [Compound 3, 3′-benzoyl-6-chloro-1′-(3-chlorophenyl)-4′-hydroxy-1,1′,2,5′-tetrahydrospiro[indole-3,2′-pyrrole]-2,5′-dione], 51 nM.
Same read-out and setting: under `CCOC(=O)CNC1=C(C(=O)C2(C)CC2)C2(C(=O)Nc3cc(Cl)ccc32)N(c2cccc(Cl)c2)C1=O` (centres unmarked) [Compound 15, ethyl 2-{[6-chloro-1′-(3-chlorophenyl)-3′-(1-methylcyclopropanecarbonyl)-2,5′-dioxo-1,1′,2,5′-tetrahydrospiro[indole-3,2′-pyrrole]-4′-yl]amino}acetate] stands 349 nM; under `CC1(C(=O)C2=C(O)C(=O)N(c3cc(Cl)ccc3F)C23C(=O)Nc2cc(Cl)ccc23)CC1` (centres unmarked) [Compound 1, 6-chloro-1′-(5-chloro-2-fluorophenyl)-4′-hydroxy-3′-(1-methylcyclopropane-carbonyl)-1,1′,2,5′-tetrahydrospiro[indole-3,2′-pyrrole]-2,5′-dione], 354 nM.

The Ki is the dissociation constant of the complex between target and ligand, obtained from inhibition or displacement. By IC50 is commonly meant the midpoint of a concentration-inhibition curve. Higher therefore signals weaker potency in that assay.
